What is called IC50 is the concentration that gives 50% inhibition.

Molecules are shown by their SMILES. Read-outs that look alike come from different tables or passages of the source.

Data set [1] concerns the target T1, native human B1 receptors (Homo sapiens, UniProt P46663).
T1 construct: which express native human B1 receptors after induction with human IL-1; Coriell Institute; host or cells: IMR-90 human foetal lung fibroblasts, induced with human IL-1
T1 sequence (P46663 1-353): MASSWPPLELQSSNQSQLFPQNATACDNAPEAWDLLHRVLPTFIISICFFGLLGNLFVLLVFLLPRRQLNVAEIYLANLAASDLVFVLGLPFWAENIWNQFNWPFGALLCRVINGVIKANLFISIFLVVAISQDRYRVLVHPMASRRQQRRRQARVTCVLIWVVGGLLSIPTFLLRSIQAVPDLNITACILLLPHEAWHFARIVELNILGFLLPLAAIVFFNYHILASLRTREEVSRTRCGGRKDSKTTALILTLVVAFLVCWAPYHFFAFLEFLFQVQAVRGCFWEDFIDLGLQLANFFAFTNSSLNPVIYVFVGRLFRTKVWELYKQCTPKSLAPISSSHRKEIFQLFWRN
In words: Calcium flux assay (FLIPR) with IMR-90 human foetal lung fibroblasts after IL-1 induction. Particulars: IMR-90 fibroblasts induced with human IL-1; 0.1% BSA in assay buffer; agonist Lys-(Des-Arg)-Bradykinin at EC90; read-out: hB1 IC50 IMR90. The data set is classed as cell-based. As for the experimental part:
Calcium Flux Assay (FLIPR) with Human Fibroblasts for Bradykinin B1 Receptor Antagonist (hB1 IMR-90 IC50)
The Calcium flux Assay was carried out utilising IMR-90 human foetal lung fibroblasts (American Type Culture Collection, Rockville, Md.; and Coriell Institute, Camden, N.J.), which express native human B1 receptors after induction with human IL-1[…].
The fibroblasts were cultured in complete growth media comprised of Dulbecco's modified Eagle's medium (DMEM; Sigma) containing 10% foetal bovine serum, 4 mM L-glutamine, and 1% nonessential amino acids. The cells were maintained in a humidified atmosphere with 5% CO2 at 37° C. and were sub-cultured at a ratio of 1:3, every other day.
For the assay, IMR-90 fibroblasts were harvested using TrypLE Express (GIBCO/Invitrogen) and seeded into 384-well plates (Corning Cellbinding Surface, Cat. 3683) at a density of 15000 cells/well. The following day, cells were treated with 0.35 ng/mL human IL-1[…] in 10% FBS/MEM for 3 h to up-regulate B1 receptors. Induced cells were loaded with fluorescent calcium indicator by incubation with 2.5 μM Fluo-4/AM (Invitrogen) at 37° C., 5% CO2 for 2 h in the presence of 2.5 mM probenecid in 1% FBS/MEM. Extracellular dye was removed by washing with assay buffer (2.5 mM probenecid and 0.1% BSA in 20 mM HEPES/HBSS without bicarbonate or phenol red, pH 7.5). Example compounds were assayed at 8 concentrations in triplicate. After addition of example compounds to the cell plate and incubation for 30 min at 28° C., the addition of B1 agonist Lys-(Des-Arg)-Bradykinin (Bachem, Brackley) at a final concentration of EC90 was carried out on the FLIPR instrument while continuously monitoring Ca^2+-dependent fluorescence at 538 nm. A peptide antagonist Lys-(Des-Arg-Leu)-Bradykinin (Bachem, Brackley) at 20 μM was used to determine the full inhibition as control. IC50 values were determined by the same way described for the FLIPR assay with recombinant cells.

The next data set addresses T2, human B1 receptor (Homo sapiens, UniProt P46663).
T2 construct: host or cells: CHO-K1
T2 sequence (P46663 1-353): T1 sequence (P46663 1-353)
In words: Calcium flux assay (FLIPR) with recombinant CHO-K1 cells expressing human B1 receptor. The data set is classed as cell-based. The settings on record: agonist Lys-(Des-Arg)-Bradykinin. How it is done:
The potency to inhibit the Bradykinin B1 receptors was determined for the example compounds of this invention in a cell-based fluorescent calcium-mobilisation assay. The assay measures the ability of example compounds to inhibit Bradykinin B1 receptor agonist-induced increase of intracellular free Ca^2+ in the cell line expressing B1 receptor. Specifically, calcium indicator—loaded cells are pre-incubated in the absence or presence of different concentrations of example compounds followed by the stimulation with a selective B1 receptor agonist peptide. The change of the intracellular Ca^2+ concentration is monitored with a fluorescent plate reader FLIPR (Molecular Devices).
Calcium flux Assay (FLIPR) with recombinant cells for Bradykinin B1 receptor antagonist, either in the presence (hB1 IC50) or absence (hB1 free IC50) of 0.1% BSA in assay buffer
CHO-K1 cell line expressing human B1 receptor was purchased from Euroscreen (Gosselies, Belgium, with reference name hB1-D1). The cells were grown in Nutrient Mixture Ham's F12 (Sigma) containing 10% Foetal bovine serum (Sigma) and 400 μg/mL G418 (Sigma), 5 μg/mL puromycin (Sigma).
For the calcium flux assay, 80% confluent cells were detached from the culture vessels with Versene (Gibco), and seeded into 384-well plates (Cell binding Surface; Corning, N.Y.; #3683) at a density of 15,000 cells per well. Cells were seeded in a volume of 50 μL in medium without antibiotics and incubated overnight in a humidified atmosphere with 5% CO2 at 37° C. […] The calcium indicator loaded cells were incubated at 37° C. for 2 hrs. Extracellular dye was then removed and each well was filled with 45 μL of assay buffer. Cell plates were kept in dark until used. Example compounds were assayed at 8 concentrations in triplicate. Serial 10-fold dilutions in 100% DMSO were made at a 100-times higher concentration than the final concentration, and then diluted 1:10 in assay buffer. 5 μL of each diluted compound was added to the well of cell plates (yielding final concentration with 1% DMSO), and incubated for 30 min at 28° C. before the addition of B1 receptor agonist on the FLIPR instrument.
Agonist plates contained the agonist Lys-(Des-Arg)-Bradykinin (Bachem, Brackley) at 3.5×EC90 in assay buffer with 1% DMSO. The addition of agonist 20 μl per well to the assay plate was carried out on the FLIPR instrument while continuously monitoring Ca^2+-dependent fluorescence at 538 nm. A peptide antagonist Lys-(Des-Arg-Leu)-Bradykinin (Bachem, Brackley) at 20 µM was used to determine the full inhibition as control.
Peak fluorescence was used to determine the response to agonist obtained at each concentration of example compound by the following equation:
% Response=100*(RFU(example compound)−RFU(control)/(RFU(DMSO)−RFU(control)) • Control=full inhibition by the peptide antagonist Lys-(Des-Arg-Leu)-Bradykinin at 20 μM
The response values were plotted against the logarithm of the compound concentrations. The compounds were tested in triplicates per plate and mean values were plotted in Excel XLfit to determine IC50 values, percentage of maximal inhibition and the Hill slopes.
For orientation: Calcium flux is commonly read through the fluorescence of an indicator in the cells.

The conditions of data set [2]: due to metabolic liability; prior art; cited from earlier work.
In a further data set the test system is IL-8 secretion. In words: Bradykinin B1 receptor agonist-induced secretion of IL-8 in human IMR-90 cells. The settings on record: 0.1 μM Lys-[Des-Arg9]Bradykinin and 0.1 μM Sar-[D-Phe8]-des-Arg9-Bradykinin, 5 hours. In kind it is cell-based. The source says: (§1) Inhibitory Activity on Bradykinin B1 Receptor Agonist-Induced Secretion of IL-6 and IL-8 in Human IMR-90 Cells
(§2) The effect of the compound examples on secretion of the cytokine IL-6 and IL-8 was investigated in the human foetal lung fibroblast IMR-90 cell line. Here the induction of the cytokine secretion was induced by the Bradykinin B1 receptor agonists Lys-[Des-Arg9]Bradykinin (CAS 71800-36-7, Tocris Bioscience) and Sar-[D-Phe8]-des-Arg9-Bradykinin (CAS 126959-88-4, Tocris Bioscience) leading to the activation of the Bradykinin B1-driven signalling pathway. […]
(§3) IMR-90 cells were cultured in Eagle's Minimum Essential Medium (EMEM) containing 2 mM L-glutamine, 1 g/L glucose, 1.5 g/L NaHCO3, 1 mM sodium pyruvate and non-essential amino acids (ATCC, 30-2003™) supplemented with 10% FBS (Biochrom, 50615) and 50 U/mL Penicillin, 50 μg/mL Streptomycin (PAA, P11-010). […] The compound examples were serially diluted in 100% DMSO and evaluated at 8 different concentrations within the range of 3 nM and 10 μM and a final DMSO concentration of 0.4%. […] The amount of IL-6 and IL-8 in the supernatant was determined using the Human ProInflammatory Panel II (4-Plex) (MSD, K15025B) according to manufacturer's instruction. […] The cell viability was measured using the CellTiter-Glo Luminescent Assay (Promega, G7571) following the manufacturers protocol. […]

In a further data set the test system is IL-6 secretion. In words: Bradykinin B1 receptor agonist-induced secretion of IL-6 in human IMR-90 cells. The data set is classed as cell-based. The settings on record: 0.1 μM Lys-[Des-Arg9]Bradykinin and 0.1 μM Sar-[D-Phe8]-des-Arg9-Bradykinin, 5 hours.
Description: as §1, §2, §3

A further data set relates to stimulated IMR-90 cells. In words: Cell viability, CellTiter-Glo Luminescent Assay. In kind it is cell-based, human. As for the experimental part: IMR-90 cells were cultured in Eagle's Minimum Essential Medium (EMEM) containing 2 mM L-glutamine, 1 g/L glucose, 1.5 g/L NaHCO3, 1 mM sodium pyruvate and non-essential amino acids (ATCC, 30-2003™) supplemented with 10% FBS (Biochrom, 50615) and 50 U/mL Penicillin, 50 μg/mL Streptomycin (PAA, P11-010). The assay was performed in EMEM and a cell density of […] IMR-90 cells/96-well. The compound examples were serially diluted in 100% DMSO and evaluated at 8 different concentrations within the range of 3 nM and 10 μM and a final DMSO concentration of 0.4%. The IMR-90 cells were incubated with the respective concentration of the compound for 30 min. […] The amount of IL-6 and IL-8 in the supernatant was determined using the Human ProInflammatory Panel II (4-Plex) (MSD, K15025B) according to manufacturer's instruction. […] Plates were washed three times with phosphate-buffered saline (PBS; 137 mM NaCl, 2.7 mM KCl, 6.5 mM Na2HP04, 1.7 mM KH2P04) containing 0.05% Tween-20 (Bio-Rad, 161-0781) and electrochemiluminescence detected using the MSD Sector Imager 6000 plate reader. The cell viability was measured using the CellTiter-Glo Luminescent Assay (Promega, G7571) following the manufacturers protocol. […] After incubation and shaking for 10 minutes luminescent signal was measured which was proportional to the amount of ATP present. […]

The mark [3] stands for this setting: absence of 0.1% BSA in assay buffer, read-out: hB1 free IC50.

For the compound `Cc1ccc(-c2ccc(NC(=O)C3CC3c3ccc(Cl)cc3)cc2C(=O)O)cn1` (racemic) [Example 15, 5-({[2-(4-chlorophenyl)cyclopropyl]carbonyl}amino)-2-(6-methylpyridin-3-yl)benzoic acid], the results for the IC50 (in data set [1]; on human B1 receptor (setting [3])) were 12 µM and 2.42 µM, respectively.
With `C[C@@H](NC(=O)C1(NC(=O)C(F)(F)F)CC1)c1ccc(-c2cccc(Cl)c2C(=O)O)cc1F` [MK-0686], the pharmacokinetic profile entry in data set [2] is “suboptimal”.
Take `O=C(O)c1cc(NC(=O)C2CC2c2ccc(Cl)cc2)c(F)cc1-c1ccc(C(F)(F)F)nc1` (racemic) [Example 25, 5-({[2-(4-chlorophenyl)cyclopropyl]carbonyl}amino)-4-fluoro-2-[6-(trifluoromethyl)pyridin-3-yl]benzoic acid]: the half-inhibitory concentration (IC50) was 4.73 µM in data set [1] and 1.26 µM at human B1 receptor (setting [3]).
In the case of `O=C(O)c1cc(NC(=O)C2CC2c2cccc(Cl)c2)ccc1-c1cnn(C2CCC2)c1` (racemic) [Example 1, 5-({[2-(3-chlorophenyl)cyclopropyl]carbonyl}amino)-2-(1-cyclobutyl-1H-pyrazol-4-yl)benzoic acid], the IC50 was 0.509 µM with IL-8 secretion; 0.207 µM on human B1 receptor (setting [3]); 0.065 µM at human B1 receptor (presence of 0.1% BSA in assay buffer, read-out: hB1 IC50); 0.099 µM in the data set with IL-6 secretion. The “effect on the cell viability” value in the data set on stimulated IMR-90 cells is listed as “no effect”.
As to `O=C(O)c1cc(NC(=O)C2CC2c2ccc(Cl)cc2)cc(F)c1-c1ccc(C(F)(F)F)nc1` (racemic) [Example 24, 5-({[2-(4-chlorophenyl)cyclopropyl]carbonyl}amino)-3-fluoro-2-[6-(trifluoromethyl)pyridin-3-yl]benzoic acid], the results for the concentration for half-maximal inhibition (IC50) (in data set [1]; at human B1 receptor (setting [3])) were 2.33 µM and 1.08 µM, respectively.
For `CC(C)(C)c1cnn(-c2ccc(NC(=O)C3CC3c3ccc(Cl)cc3)cc2C(=O)O)c1` (racemic) [Example 13, 2-(4-tert-Butyl-1H-pyrazol-1-yl)-5-({[2-(4-chlorophenyl)cyclopropyl]carbonyl}amino)benzoic acid] the same measures were 3.39 µM and 1.76 µM.

The values above are taken from patent US20190177279A1, “CARBOXYLIC ACID AROMATIC 1,2-CYCLOPROPYLAMIDES” (Bayer Pharma Aktiengesellschaft, priority 2017, published 2019).
